Tests used:
Adrenergic β2 = molecular target: T1, Adrenergic β2 (Homo sapiens, UniProt P07550); assay: Adrenergic β2 mediated cAMP production in H292 cells (AlphaScreen cAMP detection); assay type: cell-based; design: key to β2 Int Act: fraction of formoterol maximum activity (formoterol = 1); details: for β2 Int Act: Intrinsic Activity as a fraction relative to the maximum activity determined for formoterol; for EC50: cAMP production, 60 minutes at room temperature, 300 μM rolipram, read-out: β2 pEC50 (converted)
T1 construct: Adherent H292 cells were removed from tissue culture flasks; endogenous in cells; host or cells: H292 cells
T1 sequence (P07550 whole entry): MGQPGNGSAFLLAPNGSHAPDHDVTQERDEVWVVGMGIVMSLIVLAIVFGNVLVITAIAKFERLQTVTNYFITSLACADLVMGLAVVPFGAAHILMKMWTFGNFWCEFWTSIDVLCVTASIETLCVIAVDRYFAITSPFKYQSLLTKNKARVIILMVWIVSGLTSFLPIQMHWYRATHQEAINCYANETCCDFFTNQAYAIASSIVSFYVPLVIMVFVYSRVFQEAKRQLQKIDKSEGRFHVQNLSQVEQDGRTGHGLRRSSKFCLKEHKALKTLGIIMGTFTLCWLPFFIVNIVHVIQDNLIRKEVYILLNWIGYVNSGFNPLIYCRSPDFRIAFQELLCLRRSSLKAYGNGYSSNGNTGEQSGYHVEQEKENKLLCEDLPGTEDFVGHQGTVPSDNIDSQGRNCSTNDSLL
Procedure, shortened: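 H292 cells pre-treated 10 min with rolipram (300 μM final), then given agonist for 60 min at room temperature in HBSS/10 mM HEPES pH 7.4, 1.6% DMSO final. Lysate cAMP measured by AlphaScreen against a cAMP standard curve. Four-parameter fit gives pEC50; intrinsic activity relative to formoterol maximum.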

[1] = molecular target: T2, recombinant human adrenergic beta 1 receptors (Homo sapiens, UniProt P08588); assay: Adrenergic β1 selectivity assay, [125I]-Iodocyanopindolol binding to membranes; details: inhibition of [125I]-Iodocyanopindolol binding, read-out: β1 bind pIC50 (converted)
T2 construct: purchased Euroscreen
T2 sequence (P08588 whole entry): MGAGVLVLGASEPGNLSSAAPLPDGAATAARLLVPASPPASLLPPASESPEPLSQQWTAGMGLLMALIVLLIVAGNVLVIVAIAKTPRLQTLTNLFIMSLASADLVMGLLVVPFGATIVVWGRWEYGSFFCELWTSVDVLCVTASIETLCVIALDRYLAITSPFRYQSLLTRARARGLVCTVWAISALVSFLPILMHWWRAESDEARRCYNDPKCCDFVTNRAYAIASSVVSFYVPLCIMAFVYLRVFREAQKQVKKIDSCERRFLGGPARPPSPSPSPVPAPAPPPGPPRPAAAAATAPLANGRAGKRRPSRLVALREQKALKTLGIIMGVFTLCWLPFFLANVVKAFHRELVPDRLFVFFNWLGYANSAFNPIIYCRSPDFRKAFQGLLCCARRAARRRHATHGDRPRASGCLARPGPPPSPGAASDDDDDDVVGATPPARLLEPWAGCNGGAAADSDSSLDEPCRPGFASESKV
Procedure, shortened: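 Recombinant human β1 membranes in HEPES buffer pH 7.4 with 120 mM NaCl were incubated 2 hours at room temperature with 0.036 nM [^125I]-Iodocyanopindolol. Nonspecific binding defined by 10 μM propranolol; bound radioactivity counted after filtration. pIC50 from four-parameter logistic fit.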

[2] = molecular target: T3, recombinant human Dopamine Subtype D2s receptors (Homo sapiens, UniProt P14416); assay: Dopamine D2 selectivity assay, [3H]-spiperone binding to membranes; details: inhibition of [3H]-spiperone binding, read-out: D2 bind pIC50 (converted)
T3 construct: purchased Perkin Elmer
T3 sequence (P14416 1-414 isoform P14416-2): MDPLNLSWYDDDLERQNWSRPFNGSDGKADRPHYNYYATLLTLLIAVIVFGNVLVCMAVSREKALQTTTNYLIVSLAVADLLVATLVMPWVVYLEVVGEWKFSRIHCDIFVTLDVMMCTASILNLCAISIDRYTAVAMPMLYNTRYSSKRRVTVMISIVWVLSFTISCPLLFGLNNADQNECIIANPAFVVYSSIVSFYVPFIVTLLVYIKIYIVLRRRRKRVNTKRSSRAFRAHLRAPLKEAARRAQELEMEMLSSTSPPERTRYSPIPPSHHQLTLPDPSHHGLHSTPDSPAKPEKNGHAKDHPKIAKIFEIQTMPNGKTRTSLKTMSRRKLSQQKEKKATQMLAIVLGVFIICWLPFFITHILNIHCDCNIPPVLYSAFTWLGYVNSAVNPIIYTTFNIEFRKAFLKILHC
Procedure, shortened: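 Human D2s receptor membranes incubated 2 h at room temperature with 0.16 nM [3H]-spiperone and test compound in HEPES buffer pH 7.4 (120 mM NaCl, 0.1% gelatin). Non-specific binding defined with 10 μM haloperidol; filter-bound radioactivity counted, pIC50 from four-parameter logistic fit.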

Row | SMILES | β2 Int Act (Adrenergic β2) | EC50 (Adrenergic β2) [nM] | IC50 [1] [nM] | IC50 [2] [nM]
1 | O=C(CCNCCc1cc(F)cc(F)c1)N(CCNCCc1ccc(O)c2[nH]c(=O)ccc12)C1CCCCC1 [Example 15, N-Cyclohexyl-3-(3,5-difluorophenethylamino)-N-(2-(2-(8-hydroxy-2-oxo-1,2-dihydroquinolin-5-yl)ethylamino)ethyl)propanamide bis(trifluoroacetate)] | 0.88 | 7.94 | > 10000 | 1260
2 | O=C1COc2c(CCNCCN(C(=O)CCNCCc3cc(F)ccc3F)C3CCCCCC3)ccc(O)c2N1 [Example 64, N-Cycloheptyl-3-(2,5-difluorophenethylamino)-N-(2-(2-(5-hydroxy-3-oxo-3,4-dihydro-2H-benzo[b][1,4]oxazin-8-yl)ethylamino)ethyl)propanamide bis(trifluoroacetate)] | 0.88 | 0.631 | 1260 | 63.1
3 | O=C1COc2c(CCNCCN(C(=O)CCNCCc3cc(F)ccc3F)C3CCCCC3)ccc(O)c2N1 [Example 38, N-Cyclohexyl-3-(2,5-difluorophenethylamino)-N-(2-(2-(5-hydroxy-3-oxo-3,4-dihydro-2H-benzo[b][1,4]oxazin-8-yl)ethylamino)ethyl)propanamide bis(trifluoroacetate)] | 0.98 | 1.26 | > 5010 | 126
4 | CCCC[C@@H](C)N(CCNCCc1ccc(O)c2c1OCC(=O)N2)C(=O)CCNCCc1ccc(Cl)s1 [Example 49, (R)-3-(2-(5-Chlorothiophen-2-yl)ethylamino)-N-(hexan-2-yl)-N-(2-(2-(5-hydroxy-3-oxo-3,4-dihydro-2H-benzo[b][1,4]oxazin-8-yl)ethylamino)ethyl)propanamide bis(trifluoroacetate)] | 1.01 | 2.51 | 1000 | 63.1
5 | O=C(CCNCCc1ccc(Cl)cc1)N(CCNCCc1ccc(O)c2[nH]c(=O)ccc12)C1CCCCC1 [Example 14, 3-(4-Chlorophenethylamino)-N-cyclohexyl-N-(2-(2-(8-hydroxy-2-oxo-1,2-dihydroquinolin-5-yl)ethylamino)ethyl)propanamide bis(trifluoroacetate)] | 0.88 | 20 | > 10000 | 251
6 | O=C1COc2c(CCNCCN(C(=O)CCNCCc3cccc(Cl)c3)C3CCCCCC3)ccc(O)c2N1 [Example 68, 3-(3-Chlorophenethylamino)-N-cycloheptyl-N-(2-(2-(5-hydroxy-3-oxo-3,4-dihydro-2H-benzo[b][1,4]oxazin-8-yl)ethylamino)ethyl)propanamide bis(trifluoroacetate)] | 0.93 | 3.98 | 398 | 100
7 | CCCC[C@@H](C)N(CCNCCc1ccc(O)c2c1OCC(=O)N2)C(=O)CCNCCc1cc(F)ccc1F [Example 54, (R)-3-(2,5-Difluorophenethylamino)-N-(hexan-2-yl)-N-(2-(2-(5-hydroxy-3-oxo-3,4-dihydro-2H-benzo[b][1,4]oxazin-8-yl)ethylamino)ethyl)propanamide bis(trifluoroacetate)] | 0.96 | 5.01 | 2000 | 31.6
8 | O=C(CCOCCc1ccccc1)N(CCNCCc1ccc(O)c2[nH]c(=O)ccc12)C1CCCCC1 [Example 2, N-Cyclohexyl-N-(2-(2-(8-hydroxy-2-oxo-1,2-dihydroquinolin-5-yl)ethylamino)ethyl)-3-phenethoxypropanamide] | 0.93 | 12.6 | > 6310 | > 6310
9 | Cc1cc(CCNCCC(=O)N(CCNCCc2ccc(O)c3c2OCC(=O)N3)C2CCCCC2)ccc1F [Example 40, N-Cyclohexyl-3-(4-fluoro-3-methylphenethylamino)-N-(2-(2-(5-hydroxy-3-oxo-3,4-dihydro-2H-benzo[b][1,4]oxazin-8-yl)ethylamino)ethyl)propanamide bis(trifluoroacetate)] | 0.96 | 251 | > 7940 | 398
10 | CCCC[C@@H](C)N(CCNCCc1ccc(O)c2c1OCC(=O)N2)C(=O)CCNCCc1cc(C)ccc1F [Example 56, (R)-3-(2-Fluoro-5-methylphenethylamino)-N-(hexan-2-yl)-N-(2-(2-(5-hydroxy-3-oxo-3,4-dihydro-2H-benzo[b][1,4]oxazin-8-yl)ethylamino)ethyl)propanamide bis(trifluoroacetate)] | 0.91 | 7.94 | 2000 | 31.6
11 | O=C1COc2c(CCNCCN(C(=O)CCNCCc3cc(F)cc(F)c3)C3CCCCCC3)ccc(O)c2N1 [Example 65, N-Cycloheptyl-3-(3,5-difluorophenethylamino)-N-(2-(2-(5-hydroxy-3-oxo-3,4-dihydro-2H-benzo[b][1,4]oxazin-8-yl)ethylamino)ethyl)propanamide bis(trifluoroacetate)] | 0.93 | 1.58 | 2510 | 126
12 | O=C1COc2c(CCNCCN(C(=O)CCNCCc3ccc(Cl)cc3)C3CCCCCC3)ccc(O)c2N1 [Example 63, 3-(4-Chlorophenethylamino)-N-cycloheptyl-N-(2-(2-(5-hydroxy-3-oxo-3,4-dihydro-2H-benzo[b][1,4]oxazin-8-yl)ethylamino)ethyl)propanamide bis(trifluoroacetate)] | 0.79 | 2 | 251 | 39.8
13 | CCCC[C@@H](C)N(CCNCCc1ccc(O)c2c1OCC(=O)N2)C(=O)CCNCCc1cc(F)ccc1C [Example 57, (R)-3-(5-Fluoro-2-methylphenethylamino)-N-(hexan-2-yl)-N-(2-(2-(5-hydroxy-3-oxo-3,4-dihydro-2H-benzo[b][1,4]oxazin-8-yl)ethylamino)ethyl)propanamide bis(trifluoroacetate)] | 0.91 | 7.94 | 1580 | 15.8
14 | O=C1COc2c(CCNCCN(C(=O)CCNCCc3cccc(F)c3)C3CCCCCC3)ccc(O)c2N1 [Example 69, N-Cycloheptyl-3-(3-fluorophenethylamino)-N-(2-(2-(5-hydroxy-3-oxo-3,4-dihydro-2H-benzo[b][1,4]oxazin-8-yl)ethylamino)ethyl)propanamide bis(trifluoroacetate)] | 0.88 | 1.58 | 794 | 158
15 | O=C1COc2c(CCNCCN(C(=O)CCNCCc3ccc(F)c(F)c3)C3CCCCC3)ccc(O)c2N1 [Example 42, N-Cyclohexyl-3-(3,4-difluorophenethylamino)-N-(2-(2-(5-hydroxy-3-oxo-3,4-dihydro-2H-benzo[b][1,4]oxazin-8-yl)ethylamino)ethyl)propanamide bis(trifluoroacetate)] | 0.9 | 2 | 3160 | 316
16 | CCCC[C@@H](C)N(CCNCCc1ccc(O)c2c1OCC(=O)N2)C(=O)CCNCCc1ccccc1Cl [Example 46, (R)-3-(2-Chlorophenethylamino)-N-(hexan-2-yl)-N-(2-(2-(5-hydroxy-3-oxo-3,4-dihydro-2H-benzo[b][1,4]oxazin-8-yl)ethylamino)ethyl)propanamide bis(trifluoroacetate)] | 0.89 | 1.26 | 1580 | 15.8
17 | Cc1cc(CCNCCC(=O)N(CCNCCc2ccc(O)c3c2OCC(=O)N3)C2CCCCCC2)ccc1F [Example 62, N-Cycloheptyl-3-(4-fluoro-3-methylphenethylamino)-N-(2-(2-(5-hydroxy-3-oxo-3,4-dihydro-2H-benzo[b][1,4]oxazin-8-yl)ethylamino)ethyl)propanamide bis(trifluoroacetate)] | 0.86 | 3.98 | 251 | 63.1

From US20100056508A1, “AMINE DERIVATIVES AND THEIR USE IN BETA-2-ADRENORECEPTOR MEDIATED DISEASES” (ASTRAZENECA AB, priority 2006, published 2010)
